The source of these data is patent US20090275538A1, “ARYLMETHYLIDENE HETEROCYCLES AS NOVEL ANALGESICS” (priority 2008, published 2009).

The experiment has as its system neuropathic rats (chronic constriction injury of the left sciatic nerve). Briefly: Analgesic effect in chronic constriction injury (Bennett) model of neuropathic pain, Von Frey 50% withdrawal threshold. The settings on record: rats rendered neuropathic via the Bennett Model; intrathecal administration in Captisol; mean ± SEM; p<0.05 vs vehicle control. The class given is in vivo, Sprague-Dawley rats. On the procedure:
Determination of Analgesic Effect in an Experimental Model of Neuropathic Pain
Adult, male Sprague-Dawley rats were obtained from Charles River Laboratories (Wilmington, Mass.) and housed under standard conditions at the Institut Armand-Frappier (Laval, QC). Food and water were provided to experimental animals ad libitum, and rats weighed 175-200 grams at the time of assessment.
Compounds were prepared for intrathecal administration by dissolving them in a vehicle of Captisol® (CyDex, Lenexa, Kans.); total volume of solution administered to rats was 20 μL.
Neuropathic pain was induced in rats via chronic constriction injury (CCl) of the left sciatic nerve in accordance with the procedure described by Bennett & Xie (Pain, 1988). Briefly, under ketamine/xylazine anaesthesia, the sciatic nerve was exposed by dissection at the level of mid-thigh, and four loose ligatures (USP 4/0, Braun Melsungen, FRG) were implanted around the nerve—with due attention not to interrupt the epineural circulation. The incision was closed-up using simple suturing, and the rats allowed to recover.
After approximately two weeks, a stable allodynia to blunt mechanical stimuli was identified in the hind paw ipsilateral to the CCl, manifested as a reduction of 50% withdrawal threshold, and identified using the Von Frey technique, as described by Chaplan et al. (Journal of Neuroscience Methods, 1994). Rats were considered to be fully neuropathic upon displaying a 50% withdrawal threshold of <3.5 grams consistently over the course of 72 hours.
Under brief isoflurane […], compounds were administered to neuropathic rats via acute local delivery in the intrathecal space surrounding the lumbar enlargement of the spinal cord.
Turning to `CCN(CC)C1CCN(C2=NC(=O)/C(=C\c3cc(F)ccc3OC(=O)N(C)C)S2)C1` (stereo not shown), the “Peak 50% Withdrawal Threshold” value is 11.84 ± 1.58 g.

`CN(C)[C@@H]1CCN(C2=NC/C(=C/c3cc(F)ccc3O)S2)C1.Cl`: the “Peak 50% Withdrawal Threshold” value turned out to be 6.44 ± 1.33 g.

As for `CN(C)[C@H]1CCN(C2=NC(=O)/C(=C/c3cc(F)ccc3O)S2)C1.CS(=O)(=O)O`, the “Peak 50% Withdrawal Threshold” value came out at 9.72 ± 2.04 g.

As to `CN(C)[C@@H]1CCN(C2=NC(=O)/C(=C/c3ccc(F)cc3O)S2)C1`, the “Peak 50% Withdrawal Threshold” value is 5.6 ± 1.94 g.

For `CN(C)[C@H]1CCN(C2=NC(=O)/C(=C/c3ccc(F)cc3O)S2)C1.CS(=O)(=O)O`, the “Peak 50% Withdrawal Threshold” value is reported as 7.3 ± 1.37 g.

Turning to `O=C1N=C(N2CCCCC2)S/C1=C\c1ccccc1O`, the “Peak 50% Withdrawal Threshold” value was 6.74 ± 2.13 g.

With `O=C1N=C(N2CCN(CCO)CC2)S/C1=C\c1ccc(F)cc1O`, the “Peak 50% Withdrawal Threshold” value is on record as 8.23 ± 2.40 g.

For the compound `CS(=O)(=O)O.O=C1N=C(N2CCN(CCO)CC2)S/C1=C\c1cc(F)ccc1O`, the “Peak 50% Withdrawal Threshold” value amounted to 6.40 ± 2.45 g.

For the compound `Cl.O=C1N=C(N2CCCCN2)S/C1=C/c1cc(F)ccc1OC(=O)N1CCCC1` [2-{[(5E)-2-(1,2-diazinan-1-yl)-4-oxo-4,5-dihydro-1,3-thiazol-5-ylidene]methyl}-4-fluorophenylpyrrolidine-1-carboxylate hydrochloride], the “Peak 50% Withdrawal Threshold” value is 8.18 ± 1.98 g.

`CN(C)C(=O)Oc1cc(F)ccc1/C=C1/SC(N2CCCCN2)=NC1=O.Cl` [2-{[(5E)-2-(1,2-diazinan-1-yl)-4-oxo-4,5-dihydro-1,3-thiazol-5-ylidene]methyl}-5-fluorophenyl N,N-dimethylcarbamate hydrochloride]: the “Peak 50% Withdrawal Threshold” value is listed as 6.18 ± 1.77 g.

Turning to `Cl.O=C1N=C(N2CCCCN2)S/C1=C/c1ccc(F)cc1OC(=O)N1CCCC1` [2-{[(5E)-2-(1,2-diazinan-1-yl)-4-oxo-4,5-dihydro-1,3-thiazol-5-ylidene]methyl}-5-fluorophenyl pyrrolidine-1-carboxylate hydrochloride], the “Peak 50% Withdrawal Threshold” value is listed as 7.42 ± 1.21 g.

Consider `O=C1N=C(N2CCCCN2)S/C1=C\c1ccc(F)cc1O` [(5Z)-2-(1,2-diazinan-1-yl)-5-[(4-fluoro-2-hydroxyphenyl)methylidene]-4,5-dihydro-1,3-thiazol-4-one], for which the “Peak 50% Withdrawal Threshold” value stood at 7.37 ± 2.02 g.

For `O=C1N=C(N2CCCCN2)S/C1=C\c1cc(F)ccc1O` [(5Z)-2-(1,2-diazinan-1-yl)-5-[(5-fluoro-2-hydroxyphenyl)methylidene]-4,5-dihydro-1,3-thiazol-4-one], the “Peak 50% Withdrawal Threshold” value came out at 9.03 ± 2.00 g.
